# Where two headings read alike, the source gives them in different places.
# System: IFN-γ production by OvA-stimulated splenocytes
# Assay: OvA-stimulated production of IFN-γ by splenocytes of OvA-immunized mice
# Type: in vivo
# Conditions: for activity at 0.0001 mg/kg / activity at 0.001 mg/kg / activity at 0.01 mg/kg: Mus musculus, Splenocyte, po, read-out: Production of IFN-γ by splenocytes, % (% of control)
# [1] = OvA/Alum, 0.1 μg/kg per os, OvA 100 μg/ml
# [2] = OvA/Alum, 1.0 μg/kg per os, OvA 0 μg/ml
# [3] = OvA/Alum, 1.0 μg/kg per os, OvA 10 μg/ml
# [4] = OvA/Alum, 1.0 μg/kg per os, OvA 25 μg/ml
# [5] = OvA/Alum, 1.0 μg/kg per os, OvA 50 μg/ml
# [6] = OvA/Alum, 1.0 μg/kg per os, OvA 100 μg/ml
# [7] = OvA/Alum, 10.0 μg/kg per os, OvA 0 μg/ml
# [8] = OvA/Alum, 10.0 μg/kg per os, OvA 10 μg/ml
# [9] = OvA/Alum, 10.0 μg/kg per os, OvA 25 μg/ml
# [10] = OvA/Alum, 10.0 μg/kg per os, OvA 50 μg/ml
# [11] = OvA/Alum, 10.0 μg/kg per os, OvA 100 μg/ml
# [12] = OvA/Alum, 0.1 μg/kg i/p, OvA 10 μg/ml
# [13] = OvA/Alum, 0.1 μg/kg i/p, OvA 25 μg/ml
# [14] = OvA/Alum, 0.1 μg/kg i/p, OvA 50 μg/ml
# [15] = OvA/Alum, 0.1 μg/kg i/p, OvA 100 μg/ml
# [16] = OvA/Alum, 1.0 μg/kg i/p, OvA 25 μg/ml
# [17] = OvA/Alum, 1.0 μg/kg i/p, OvA 50 μg/ml
# [18] = OvA/Alum, 1.0 μg/kg i/p, OvA 100 μg/ml
structure (smiles),measurement,setting,value
"N[C@H](CCC(=O)N[C@@H](Cc1c[nH]c2ccccc12)C(=O)O)C(=O)O [SCV-07, γ-D-glutamyl-L-tryptophan]",activity at 0.0001 mg/kg,[1],158%
same,activity at 0.001 mg/kg,[2],100%
same,activity at 0.001 mg/kg,[3],98.3%
same,activity at 0.001 mg/kg,[4],103%
same,activity at 0.001 mg/kg,[5],103%
same,activity at 0.001 mg/kg,[6],122%
same,activity at 0.01 mg/kg,[7],100%
same,activity at 0.01 mg/kg,[8],47.9%
same,activity at 0.01 mg/kg,[9],119%
same,activity at 0.01 mg/kg,[10],119%
same,activity at 0.01 mg/kg,[11],140%
same,activity at 0.0001 mg/kg,"OvA/FA, 0.1 μg/kg per os, OvA 0 μg/ml",100%
same,activity at 0.0001 mg/kg,"OvA/FA, 0.1 μg/kg per os, OvA 10 μg/ml",119%
same,activity at 0.0001 mg/kg,"OvA/FA, 0.1 μg/kg per os, OvA 25 μg/ml",121%
same,activity at 0.0001 mg/kg,"OvA/FA, 0.1 μg/kg per os, OvA 50 μg/ml",142%
same,activity at 0.0001 mg/kg,"OvA/FA, 0.1 μg/kg per os, OvA 100 μg/ml",136%
same,activity at 0.001 mg/kg,"OvA/FA, 1.0 μg/kg per os, OvA 0 μg/ml",100%
same,activity at 0.001 mg/kg,"OvA/FA, 1.0 μg/kg per os, OvA 10 μg/ml",128%
same,activity at 0.001 mg/kg,"OvA/FA, 1.0 μg/kg per os, OvA 25 μg/ml",87.3%
same,activity at 0.001 mg/kg,"OvA/FA, 1.0 μg/kg per os, OvA 50 μg/ml",116%
same,activity at 0.001 mg/kg,"OvA/FA, 1.0 μg/kg per os, OvA 100 μg/ml",113%
same,activity at 0.01 mg/kg,"OvA/FA, 10.0 μg/kg per os, OvA 0 μg/ml",100%
same,activity at 0.01 mg/kg,"OvA/FA, 10.0 μg/kg per os, OvA 10 μg/ml",83.7%
same,activity at 0.01 mg/kg,"OvA/FA, 10.0 μg/kg per os, OvA 25 μg/ml",66.2%
same,activity at 0.01 mg/kg,"OvA/FA, 10.0 μg/kg per os, OvA 50 μg/ml",75.9%
same,activity at 0.01 mg/kg,"OvA/FA, 10.0 μg/kg per os, OvA 100 μg/ml",74.8%
same,Production of IFN-γ by splenocytes,"OvA/Alum, 0.1 μg/kg i/p, OvA 0 μg/ml",9365 pg/mL
same,Production of IFN-γ by splenocytes,[12],8816 pg/mL
same,"Production of IFN-γ by splenocytes, % (% of control)",[12],94.1%
same,Production of IFN-γ by splenocytes,[13],8028 pg/mL
same,"Production of IFN-γ by splenocytes, % (% of control)",[13],85.7%
same,Production of IFN-γ by splenocytes,[14],8028 pg/mL
same,"Production of IFN-γ by splenocytes, % (% of control)",[14],85.7%
same,Production of IFN-γ by splenocytes,[15],8048 pg/mL
same,"Production of IFN-γ by splenocytes, % (% of control)",[15],85.9%
same,Production of IFN-γ by splenocytes,"OvA/Alum, 0.1 μg/kg per os, OvA 0 μg/ml",4642 pg/mL
same,Production of IFN-γ by splenocytes,"OvA/Alum, 0.1 μg/kg per os, OvA 10 μg/ml",5775 pg/mL
same,Production of IFN-γ by splenocytes,"OvA/Alum, 0.1 μg/kg per os, OvA 25 μg/ml",6969 pg/mL
same,Production of IFN-γ by splenocytes,"OvA/Alum, 0.1 μg/kg per os, OvA 50 μg/ml",6969 pg/mL
same,Production of IFN-γ by splenocytes,[1],7310 pg/mL
same,Production of IFN-γ by splenocytes,"OvA/Alum, 1.0 μg/kg i/p, OvA 0 μg/ml",7129 pg/mL
same,Production of IFN-γ by splenocytes,"OvA/Alum, 1.0 μg/kg i/p, OvA 10 μg/ml",9986 pg/mL
same,Production of IFN-γ by splenocytes,[16],7982 pg/mL
same,"Production of IFN-γ by splenocytes, % (% of control)",[16],112.0%
same,Production of IFN-γ by splenocytes,[17],7982 pg/mL
same,"Production of IFN-γ by splenocytes, % (% of control)",[17],112.0%
same,Production of IFN-γ by splenocytes,[18],8155 pg/mL
same,"Production of IFN-γ by splenocytes, % (% of control)",[18],114.4%
same,Production of IFN-γ by splenocytes,[2],5620 pg/mL
same,Production of IFN-γ by splenocytes,[3],5523 pg/mL
same,Production of IFN-γ by splenocytes,[4],5795 pg/mL
same,Production of IFN-γ by splenocytes,[5],5795 pg/mL
same,Production of IFN-γ by splenocytes,[6],6860 pg/mL
same,Production of IFN-γ by splenocytes,[7],4266 pg/mL
same,Production of IFN-γ by splenocytes,[8],2045 pg/mL
same,Production of IFN-γ by splenocytes,[9],5066 pg/mL
same,Production of IFN-γ by splenocytes,[10],5066 pg/mL
same,Production of IFN-γ by splenocytes,[11],5976 pg/mL
same,"Production of IFN-γ by splenocytes, % (% of control)","OvA/FA, 0.1 μg/kg i/p, OvA 10 μg/ml",126.6%
same,"Production of IFN-γ by splenocytes, % (% of control)","OvA/FA, 0.1 μg/kg i/p, OvA 25 μg/ml",89.3%
same,"Production of IFN-γ by splenocytes, % (% of control)","OvA/FA, 0.1 μg/kg i/p, OvA 50 μg/ml",118.0%
same,"Production of IFN-γ by splenocytes, % (% of control)","OvA/FA, 0.1 μg/kg i/p, OvA 100 μg/ml",124.3%
same,"Production of IFN-γ by splenocytes, % (% of control)","OvA/FA, 1.0 μg/kg i/p, OvA 10 μg/ml",139.0%
same,"Production of IFN-γ by splenocytes, % (% of control)","OvA/FA, 1.0 μg/kg i/p, OvA 25 μg/ml",112.2%
same,"Production of IFN-γ by splenocytes, % (% of control)","OvA/FA, 1.0 μg/kg i/p, OvA 50 μg/ml",99.0%
same,"Production of IFN-γ by splenocytes, % (% of control)","OvA/FA, 1.0 μg/kg i/p, OvA 100 μg/ml",89.6%
